Results reported in a melting point compilation (Tetko et al.; mined from patent text by program, amines drawn as free bases though some values may be those of a salt).

Row | Compound | melting point [°C]
1 | CCOC(=O)c1c(CN(CC)CC)nc2sc3ccncc3c2c1-c1ccc(OC)c(OC)c1 | 141 to 142
2 | O=c1c2cc(-c3nnn[nH]3)ccc2sc2ncccc12 | > 300
3 | COc1ccc(F)cc1C(C)(C)CC(=O)C(=O)Nc1ccc2c(=O)onc(C)c2c1 | 171 to 173
4 | Cc1ccccc1-n1nc(-c2cccc(C(=O)O)c2)[nH]c1=O | > 310
5 | N#Cc1nc(-c2cnn(-c3ccc(C(F)(F)F)cc3[N+](=O)[O-])c2Br)[nH]c1C#N | 86 to 90
6 | CCOC(=O)C1=C(COCc2cc(=O)n(C)c(N)n2)NC(C)=C(C(=O)OC)C1c1cccc(Cl)c1Cl (stereo unspecified) | 202 to 205
7 | COC(=O)c1ccc([N+](=O)[O-])cc1C#CC(C)(C)C | 88 to 89
8 | O=c1[nH]c(=O)n(C2CC(F)C(COC(c3ccccc3)(c3ccccc3)c3ccccc3)O2)cc1C#CI (stereo unspecified) | 73
9 | CCCCCCCCCCCCCCCCSCC1(CS(=O)(=O)CCCI)CCCO1 (stereo unspecified) | 36 to 37
10 | Cn1c(=O)sc2cc(N3C[C@H](C(=O)NCCO)OC3=O)ccc21 | 217 to 219
11 | CC(=O)Nc1ccc(C2=NNC(=S)NC2C)cc1 (stereo unspecified) | 222 to 226
12 | CC(C(=O)O)c1ccc(C(C)(C)C)cc1 (stereo unspecified) | 101 to 103
13 | CCOC(=O)Cn1c(=O)sc2cc(-c3ccccc3)c(Cl)cc21 | 130 to 131
14 | CC(=O)N1CCn2c(c(C3=C(c4cn(C)c5ccccc45)C(=O)NC3=O)c3ccccc32)C1 | 308 to 310
15 | NS(=O)(=O)c1ccc(C(=O)NCCCN2CCOCC2)cc1 | 196 to 198
16 | CCC1N=C(C(N)=O)ON1S(=O)(=O)c1ccccc1Cl (stereo unspecified) | 142
17 | COc1ccc(C2CCN(C(=O)CC(=O)O)CC2)cc1OC1CCCC1 | 122 to 123
18 | N#Cc1ccc(C(Cc2ccc(C(F)(F)F)cn2)Cn2cncn2)cc1 (stereo unspecified) | 78
19 | O=C(CCCCc1ccccc1)N[C@H](Cc1ccc(C(F)(F)F)cc1)[C@@H](O)c1ccc(F)cc1 (racemic) | 152 to 153
20 | COc1nc(C)nc2c1-c1ccc(Cl)cc1C(c1ccccc1F)=NC2 | 188 to 189
21 | CN1CCC(=C2c3sccc3C=Cn3ccnc32)CC1 | 152
22 | Cc1c(Cl)ccc(N)c1Cl | 56 to 57.5
23 | Cc1noc(C)c1C(=O)N1CCC2(CC1)CSC1=C(O2)c2ccccc2C(=O)C1=O | 274 to 275
24 | N#Cc1ccc(N2C(=O)[C@@H]3[C@H](O)CCN3C2=S)c2ccccc12 | 215 to 216
25 | O=C1c2ccccc2C(=O)c2oc(-c3ccccc3)nc21 | > 260
26 | Cc1nc(-c2ccccc2)cc(-c2ccc([N+](=O)[O-])cc2)c1C(=O)O | 260 to 263

Row | Compound | melting point [°C]
27 | CC(=O)c1cc(Cl)cc(Oc2ncccc2C(=O)NC[C@H]2CC[C@H](C(C)(C)O)CC2)c1 | 133 to 135
28 | CC1(C)CCC(C)(C)c2cc(-c3ccccc3C=O)ccc21 | 85 to 87
29 | Cc1nc(-c2ccc(OC3CCCCO3)cc2)cc(-c2c(Cl)ccc(Cl)c2Cl)c1C#N (stereo unspecified) | 148 to 152
30 | O=C(Nc1csc(-c2cccnc2)n1)c1nnn[nH]1 | 263 to 265
31 | COc1c(Cl)nc(Cl)nc1-c1ccco1 | 105 to 107
32 | Cc1nnc2n1-c1sc3c(c1C(c1ccccc1Cl)=NC2)CCN(C(=S)NCc1ccccc1C(F)(F)F)C3 | 178 to 184
33 | N#Cc1c(NC2CCCCC2)cccc1-c1ccccc1 | 125 to 126
34 | CCCc1nc2c(N)nc3ccccc3c2n1CCCCNC(=O)Nc1ccccc1 | 183 to 184
35 | N#Cc1cnc2c(sc3ccccc32)c1Cl | 305 to 308
36 | Cn1nc(-c2cnc3[nH]cc(C(=O)NCC4CC4)c3n2)c2ccc(F)cc21 | 319 to 322
37 | O=C1C=CC(=Cc2cccs2)O1 | 100 to 102
38 | CCCn1nc2c(N)nc3ccccc3c2c1CCN1CCCS1(=O)=O | 201 to 202
39 | O=C(Nc1ccccc1)C1=C(O)c2ccccc2N(c2ccccc2)C1 | 120
40 | NCCC(O)C(C(=O)O)N1CCC1=O (stereo unspecified) | 152 to 154
41 | O=c1cc(-c2ccc(OCc3ccccc3)c(OCc3ccccc3)c2)oc2cc(OCCCCl)ccc12 | 153
42 | CCOC(=O)N1CCN(c2c(F)c(N)c3c(=O)c(C(=O)O)cn(C4CC4)c3c2F)C(C)C1 (stereo unspecified) | 220 to 225
43 | CC(C)OC(=O)Cc1nc(-c2ccc(Cl)cc2)oc1-c1ccco1 | 96 to 97
44 | CC(C)[C@H](NC(=O)OCc1ccccn1)C(=O)N[C@@H](Cc1ccccc1)C[C@H](O)[C@H](Cc1ccccc1)NC(=O)OCc1cccnc1 | 172 to 174
45 | Cc1ccc2c(c1)C(=O)C1=NCCCN12 | 128 to 130
46 | CCc1[nH]n(C2CCCC2)c2nc(Cc3ccc(OCCN4CCOCC4)cc3)nc(=O)c1-2 | 136 to 137
47 | Cc1oc(-c2ccc3ccccc3c2)nc1COc1ccc(/C=C/CO)cc1 | 159 to 160
48 | CCCc1c(C(=O)OCC)nc2ccccc2c1OCc1ccccc1 | 127 to 129
49 | C=C(CN(C)C)C(O)c1ncc2c(c1O)COC2c1ccccc1 (stereo unspecified) | 210 to 215
50 | O=Cc1cccc2sc(-c3ccccc3)nc12 | 127 to 128
51 | O=C(NC1CCN(CCCOc2ccc3c4c(c(=O)oc3c2)CCCC4)CC1)c1ccccc1O | 209 to 211
52 | CCCCN(C)CCc1ccc(Nc2ncc3c(n2)-c2ccccc2C(c2cccc(Br)c2)C3)cc1 (stereo unspecified) | 66 to 68

Row | Compound | melting point [°C]
53 | CC1(C)CC(=O)c2c(S(C)(=O)=O)sc(C(=O)O)c2C1 | 208
54 | O=C(O)Cc1onc(-c2ccccc2)c1-c1ccccc1 | 153 to 157
55 | Cc1ccc(C2COc3c(C)c(C)cc(C)c32)cc1 (stereo unspecified) | 65 to 66
56 | O=C1c2ccccc2C(=O)N1CCSc1ccc(O)cc1 | 124 to 125
57 | COn1c(C)nc2cc(C(=O)c3ccccc3)ccc21 | 67.7
58 | COC(=O)c1cccc(OCc2ccccc2)c1 | 74 to 77
59 | Cc1ccc(N)c(S)c1 | 90
60 | O=C(Nc1ccc2[nH]ncc2c1)N[C@@H](c1ccccc1)[C@@H]1CCCCN1 | 147 to 149
61 | CCC(=O)CCCCCCCc1ccc(O)c(O)c1 | 76 to 78
62 | O=S(=O)(c1ccc(O)cc1)c1ccc(Cl)cc1 | 143 to 145
63 | CCC1(CO)COC2(CC(c3ccccc3)SC(c3ccccc3)C2)OC1 (stereo unspecified) | 128
64 | Cc1nnc(-c2ccc3occ(-c4cc(C(F)(F)F)ccc4Cl)c3c2)o1 | 188 to 189
65 | Brc1cccc(OCc2ccc3ccccc3n2)c1 | 79 to 81
66 | O=C(O)c1cc2cc(Cl)ccc2nc1NC(Cc1ccc(Oc2ccc3ccccc3n2)cc1)C(=O)O (stereo unspecified) | 136
67 | C=CC(=O)N[C@@H](C=O)[C@@H](O)[C@H](O)[C@H](O)CO | 124 to 125
68 | COc1ccc(-c2cc(=O)c3ccc(OCC(O)CNC(C)C)cc3o2)cc1OC (stereo unspecified) | 144 to 145
69 | Nc1cccc(-c2ccc(CCN3CCN(CCc4ccccc4)CC3)c3ccccc23)n1 | 80 to 105
70 | Cc1nc2c(N)nc3ccccc3c2n1CCCCCNC(=O)c1ccccc1 | 110 to 120
71 | CC(C)(C)CC(=O)Nc1ccc2oc3c(c2c1)CCCCC3 | 182 to 183
72 | O=C1C(CCO)Oc2cc([N+](=O)[O-])ccc2N1Cc1cccc(Cl)c1 (stereo unspecified) | 100 to 102
73 | Cc1cc(C)c2[nH]c(=O)c(O)cc(=O)c2c1 | 211 to 213
74 | CS(=O)(=O)c1ccc(-c2cc(F)c(F)cc2-c2ccc(F)c(Cl)c2)cc1 | 172
75 | COc1ccc(S)c(Cl)c1Cl | 81.5 to 83
76 | C=CCN1CCCC1CNC(=O)c1cc(S(N)(=O)=O)cc2c1OCCO2 (stereo unspecified) | 143 to 144
77 | O=C([C@@H](Cc1ccc(Cl)cc1)NC1CCC(O)(c2ccc(F)cc2)CC1)N1CCC(Cn2cncn2)(C2CCCCC2)CC1 (stereo partly specified) | 150
78 | C[N+]([O-])(c1cnccc1[N+](=O)[O-])n1cccc1 (stereo unspecified) | 135 to 140

Row | Compound | melting point [°C]
79 | Cc1cc2nc(O)c(-c3c(F)cc(F)cc3F)c(O)n2n1 | 304
80 | O=C(O)CCCCCCCCNS(=O)(=O)c1ccc(Cl)cc1 | 121 to 123
81 | CC1(C)CC(C)(c2ccc(Oc3ccc(N)cc3)cc2)c2cc(Oc3ccc(N)cc3)ccc21 (stereo unspecified) | 135 to 136
82 | CCOC(=O)c1ccc(CBr)cc1OC | 70 to 71
83 | CCOC(=O)NCCOc1cc(Oc2ccc(C(F)(F)F)cc2Cl)ccc1[N+](=O)[O-] | 70 to 71
84 | COc1cccc2cc(C(=O)c3ccc(Cl)c([N+](=O)[O-])c3)oc12 | 136
85 | O=S(=O)(CCN1CCC2(CC1)OCc1ccccc12)CCN1CCC2(CC1)OCc1ccccc12 | 170 to 172
86 | FC(F)(F)c1cc2[nH]c(N3CCN(c4ncccc4C(F)(F)F)CC3)nc2cc1Cl | 206 to 208
87 | CCOc1ccc(CCCCCCC(=O)O)cc1 | 65 to 66
88 | CN1C(=O)C(c2cccc(-c3ccccc3)c2)(C2CCN(C(=O)c3cccs3)CC2)N=C1N (stereo unspecified) | 135 to 137
89 | COc1ccc2c(c1)CCC1C2=CCC2(C)C(OC(C)=O)CCC12 (stereo unspecified) | 114 to 116
90 | COC(=O)NNCc1ccc(Cl)cc1Cl | 82 to 83
91 | COC(=O)[C@H](CO)NC(=O)[C@@H]1CCCN1C(=O)OCc1ccccc1 | 97 to 100
92 | CCOC(=O)CNC(=O)n1nc(Oc2cccc(C(F)(F)F)c2)cc1C | 66 to 68
93 | CN1c2cscc2C(=O)N(Cc2ccccc2)c2ccccc21 | 137 to 138
94 | O=C(Nc1ccc(-n2nc(C3CC3)cc2C2CC2)cc1)c1ccc2nccnc2c1 | 162 to 167
95 | O=C(Nc1cccnc1)N1CCN(c2nccc(-c3ccc(F)c(F)c3)n2)CC1 | 231 to 232
96 | CCOC(=O)Cn1c(=S)c2cc(Cl)ccc2n(Cc2ccc(Br)cc2F)c1=O | 89 to 90
97 | [N-]=[N+]=NCCOc1ccc(F)c2c1CC(=O)N2 | 147 to 148
98 | Fc1ccc(CSc2nnc(-c3ccc4c(c3)CCO4)o2)cc1C(F)(F)F | 94 to 95
99 | CCOC(=O)CON(C)C(=S)Nc1cc(Cl)ccc1C | 83 to 84
100 | CC(=O)N1CCC2(CC1)Cc1ccccc1O2 | 94 to 97
101 | COc1ccc2nc(COc3ccc(F)c(C(N)=O)c3F)sc2c1 | 190 to 192
